The values that follow come from patent US9409876B2, “Bradykinin receptor antagonists and pharmaceutical compositions containing them” (DOMPE' FARMACEUTICI S.P.A., priority 2013, dated 2016).

pIC50: −log10 of the molar value.

The test deals with T1, BKB1 receptors (Homo sapiens, UniProt P46663).
T1 construct: Human (IMR-90) lung fibroblast cells expressing native BKB1 receptors; endogenous in cells; host or cells: IMR-90 human lung fibroblasts, treated with human IL-1 to up-regulate BKB1
T1 sequence (P46663 1-353): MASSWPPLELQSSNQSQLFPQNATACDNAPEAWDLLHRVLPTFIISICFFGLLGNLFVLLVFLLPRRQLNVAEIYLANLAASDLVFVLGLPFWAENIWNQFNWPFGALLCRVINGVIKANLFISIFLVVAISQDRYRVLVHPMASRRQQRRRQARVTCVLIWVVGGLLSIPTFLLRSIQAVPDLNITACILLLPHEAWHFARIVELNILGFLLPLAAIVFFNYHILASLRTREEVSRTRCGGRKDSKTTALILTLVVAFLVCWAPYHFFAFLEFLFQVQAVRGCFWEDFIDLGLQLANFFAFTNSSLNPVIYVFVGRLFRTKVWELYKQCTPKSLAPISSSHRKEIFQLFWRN
Briefly: Calcium Mobilization Assay (FLIPR), IMR-90 cells, BKB1. The test is classed as cell-based. Conditions: IL-1 induced IMR-90 cells, agonist desArg10-kallidin (DAKD). As to the method: Calcium Mobilization Assay (FLIPR)—Human (IMR-90) lung fibroblast cells expressing native BKB1 receptors were harvested by trypsinization and seeded into black wall/clear bottom 96-well plates (Costar 3904; Corning Life Sciences, Acton, Mass.) at approximately 13,000 cells/well. After 1 day incubation, cells were treated with human IL-1 (0.35 ng/ml) in 10% FBS/MEM for 2 h to up-regulate BKB1 receptors. Induced cells were loaded with fluorescent calcium indicator by incubation with 2.3 µM Fluo-4/acetoxymethyl ester (Invitrogen) at 37° C. for 1.5 h in the presence of an anion transport inhibitor (2.5 mM probenecid in 1% FBS/MEM). Extracellular dye was removed by washing with assay buffer (2.5 mM probenecid, 0.1% BSA in 20 mM HEPES/HBSS without bicarbonate or phenol red, pH 7.5) and cell plates were kept in the dark until used. Test compounds were assayed at eight concentrations in triplicate.
For orientation: A change in cytosolic calcium serves as a functional read-out for many receptors and channels.
On to `COc1ccccc1CN(C(=O)Cn1nnc2ccccc21)C(C(=O)NCC1CCCO1)c1ccc(C)cc1` (centres unmarked) [1 (mix), 2-(1H-benzotriazol-1-yl)-N-(2-methoxybenzyl)-N-{1-(4-methylphenyl)-2-oxo-2-[(tetrahydrofuran-2-ylmethyl)amino]ethyl}acetamide], for which the negative-log IC50 (pIC50) (usually the IC50 on a negative log10 scale, so that one unit is a factor of ten) was 5.72.

For `COc1ccccc1CN(C(=O)CC(C)C)C(C(=O)NCC1CCCO1)c1ccc(C)cc1` (centres unmarked) [8 (mix)], the negative-log IC50 (pIC50) was 6.38.

Regarding `COc1ccccc1CN(C(=O)Cc1ccccc1C)C(C(=O)NCC1CCCO1)c1ccc(C)cc1` (centres unmarked) [9 (mix)], the pIC50 is 6.52.

`COc1ccccc1CN(C(=O)CN1C(=O)c2ccccc2C1=O)C(C(=O)NCC1CCCO1)c1ccc(C)cc1` (centres unmarked) [10 (mix), 2-(1,3-dioxoisoindolin-2-yl)-N-(2-methoxybenzyl)-N-{1-(4-methylphenyl)-2-oxo-2-[(tetrahydrofuran-2-ylmethyl)amino]-ethyl}acetamide]: the pIC50 was 6.52.

As for `COc1ccccc1CN(C(=O)Cc1c[nH]cn1)C(C(=O)NCC1CCCO1)c1ccc(C)cc1` (centres unmarked) [12 (mix), 2-(1H-imidazol-4-yl)-N-(2-methoxybenzyl)-N-{1-(4-methylphenyl)-2-oxo-2-[(tetrahydrofuran-2-ylmethyl)amino]ethyl}acetamide], the pIC50 is 7.01.

As to `COc1ccccc1CC(=O)N(Cc1ccccc1OC)C(C(=O)NCC1CCCO1)c1ccc(C)cc1` (centres unmarked) [13 (mix)], the negative logarithm of the IC50 (pIC50) was 6.52.

`CCCCC(=O)N(Cc1ccccc1OC)C(C(=O)NCC1CCCO1)c1ccc(C)cc1` (centres unmarked) [14 (mix), N-(2-methoxybenzyl)-N-{1-(4-methylphenyl)-2-oxo-2-[(tetrahydrofuran-2-ylmethyl)amino]ethyl}pentanamide]: the pIC50 is 6.52.

In the case of `COc1ccccc1CN(C(=O)C1CCCC1)C(C(=O)NCC1CCCO1)c1ccc(C)cc1` (centres unmarked) [15 (mix), N-(2-methoxybenzyl)-N-{1-(4-methylphenyl)-2-oxo-2-[(tetrahydrofuran-2-ylmethyl)amino]ethyl}cyclopentanecarboxamide], the pIC50 was 6.52.

Take `COc1ccccc1CN(C(=O)c1ccc(O)cc1)C(C(=O)NCC1CCCO1)c1ccc(C)cc1` (centres unmarked) [16 (mix), 4-hydroxy-N-(2-methoxybenzyl)-N-{1-(4-methylphenyl)-2-oxo-2-[(tetrahydrofuran-2-ylmethyl)amino]ethyl}benzamide]: the pIC50 was 6.00.

`COc1ccccc1CN(C(=O)CCC(C)=O)C(C(=O)NCC1CCCO1)c1ccc(C)cc1` (centres unmarked) [17 (mix), 4-oxo-N-(2-methoxybenzyl)-N-{1-(4-methylphenyl)-2-oxo-2-[(tetrahydrofuran-2-ylmethyl)amino]ethyl}pentanamide]: the pIC50 was 5.92.

`COc1ccccc1CN(C(=O)Cc1cccc(C)c1)C(C(=O)NCC1CCCO1)c1ccc(C)cc1` (centres unmarked) [18 (mix)]: the pIC50 is 6.52.

As to `COc1ccccc1CN(C(=O)Cc1ccc(C)cc1)C(C(=O)NCC1CCCO1)c1ccc(C)cc1` (centres unmarked) [19 (mix)], the pIC50 was 5.85.

On to `COc1ccccc1CN(C(=O)c1ccc(C)cc1)C(C(=O)NCC1CCCO1)c1ccc(C)cc1` (centres unmarked) [20 (mix), 4-methyl-N-(2-methoxybenzyl)-N-{1-(4-methylphenyl)-2-oxo-2-[(tetrahydrofuran-2-ylmethyl)amino]ethyl}benzamide], for which the pIC50 was 5.21.

As for `COc1ccccc1CN(C(=O)Cc1ccc(F)cc1)C(C(=O)NCC1CCCO1)c1ccc(C)cc1` (centres unmarked) [21 (mix)], the negative-log IC50 (pIC50) was 5.46.

Turning to `COc1ccccc1CN(C(=O)c1ccc(F)cc1)C(C(=O)NCC1CCCO1)c1ccc(C)cc1` (centres unmarked) [22 (mix), 4-fluoro-N-(2-methoxybenzyl)-N-{1-(4-methylphenyl)-2-oxo-2-[(tetrahydrofuran-2-ylmethyl)amino]ethyl}benzamide], the pIC50 was 5.06.

Consider `COc1ccccc1CN(C(=O)C1CCC(F)(F)CC1)C(C(=O)NCC1CCCO1)c1ccc(C)cc1` (centres unmarked) [23 (mix), 4,4-difluoro-N-(2-methoxybenzyl)-N-{1-(4-methylphenyl)-2-oxo-2-[(tetrahydrofuran-2-ylmethyl)amino]ethyl}cyclohexanecarboxamide], for which the negative-log IC50 (pIC50) is 5.08.

Regarding `CCC(=O)N(Cc1ccccc1OC)C(C(=O)NCC1CCCO1)c1ccc(C)cc1` (centres unmarked) [24 (mix), N-(2-methoxybenzyl)-N-{1-(4-methylphenyl)-2-oxo-2-[(tetrahydrofuran-2-ylmethyl)amino]ethyl}propanamide], the negative logarithm of the IC50 (pIC50) is 4.88.

`COc1ccccc1CN(C(=O)C1CCC1)C(C(=O)NCC1CCCO1)c1ccc(C)cc1` (centres unmarked) [25 (mix), N-(2-methoxybenzyl)-N-{1-(4-methylphenyl)-2-oxo-2-[(tetrahydrofuran-2-ylmethyl)amino]ethyl}cyclobutanecarboxamide]: the pIC50 was 4.80.

`COc1ccccc1CN(C(=O)c1ccccc1[N+](=O)[O-])C(C(=O)NCC1CCCO1)c1ccc(C)cc1` (centres unmarked) [26 (mix), N-(2-methoxybenzyl)-2-nitro-N-{1-(4-methylphenyl)-2-oxo-2-[(tetrahydrofuran-2-ylmethyl)amino]ethyl}benzamide]: the negative-log IC50 (pIC50) was 4.84.

With `COc1ccccc1CN(C(=O)C1CC1)C(C(=O)NCC1CCCO1)c1ccc(C)cc1` (centres unmarked) [27 (mix), N-(2-methoxybenzyl)-N-{1-(4-methylphenyl)-2-oxo-2-[(tetrahydrofuran-2-ylmethyl)amino]ethyl}cyclopropanecarboxamide], the pIC50 is 4.82.

In the case of `COc1ccccc1CN(C(=O)c1ccc([N+](=O)[O-])cc1)C(C(=O)NCC1CCCO1)c1ccc(C)cc1` (centres unmarked) [28 (mix), N-(2-methoxybenzyl)-4-nitro-N-{1-(4-methylphenyl)-2-oxo-2-[(tetrahydrofuran-2-ylmethyl)amino]ethyl}benzamide], the negative logarithm of the IC50 (pIC50) is 5.52.

`COc1ccccc1CN(C(=O)Cc1ccc(N(C)C)cc1)C(C(=O)NCC1CCCO1)c1ccc(C)cc1` (centres unmarked) [29 (mix), 2-[(4-dimethylamino)phenyl]-N-(2-methoxybenzyl)-N-{1-(4-methylphenyl)-2-oxo-2-[(tetrahydrofuran-2-ylmethyl)amino]ethyl}acetamide]: the pIC50 was 5.68.

As to `COc1ccccc1CN(C(=O)Cn1ccnn1)C(C(=O)NCC1CCCO1)c1ccc(C)cc1` (centres unmarked) [30 (mix), N-(2-methoxybenzyl)-N-{1-(4-methylphenyl)-2-oxo-2-[(tetrahydrofuran-2-ylmethyl)amino]ethyl}-2-(1H-1,2,3-triazol-1-yl)acetamide], the negative-log IC50 (pIC50) was 7.17.

With `COc1ccccc1CN(C(=O)Cn1ccc2ccccc21)C(C(=O)NCC1CCCO1)c1ccc(C)cc1` (centres unmarked) [31 (mix), 2-(1H-indol-1-yl)-N-(2-methoxybenzyl)-N-{1-(4-methylphenyl)-2-oxo-2-[(tetrahydrofuran-2-ylmethyl)amino]ethyl}acetamide], the pIC50 was 6.57.

With `Cc1ccc(C(C(=O)NCC2CCCO2)N(CC2CCCC2)C(=O)Cc2c[nH]cn2)cc1` (centres unmarked) [32 (mix), N-(cyclopentylmethyl)-2-(1H-imidazol-4-yl)-N-{1-(4-methylphenyl)-2-oxo-2-[(tetrahydrofuran-2-ylmethyl)amino]ethyl}acetamide], the negative logarithm of the IC50 (pIC50) is 6.10.

In the case of `Cc1ccc(C(C(=O)NCC2CCCO2)N(CC2CCCCC2)C(=O)Cc2ccccc2C)cc1` (centres unmarked) [33 (mix), N-(cyclohexylmethyl)-2-(2-methylphenyl)-N-{1-(4-methylphenyl)-2-oxo-2-[(tetrahydrofuran-2-ylmethyl)amino]ethyl}acetamide], the pIC50 is 5.77.
